According to PubChem BioAssay AID1648 (Sanford-Burnham Center for Chemical Genomics, 2009):
Activity calls are given as the source filed them. The rule behind the calls is not given here.

Target: Serine/threonine-protein kinase mTOR (Homo sapiens) (UniProt P42345)
Assay: binders of mTOR FRB domain, biophysical, NMR (AID 1648)
Conditions: NMR binding to FRB domain, chemical shift

Chain of Serine/threonine-protein kinase mTOR (Homo sapiens) (P42345 2015-2114): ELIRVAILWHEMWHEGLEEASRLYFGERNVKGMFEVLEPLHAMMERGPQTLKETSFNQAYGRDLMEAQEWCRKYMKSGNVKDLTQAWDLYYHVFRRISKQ

## COc1ccccc1NC(=O)c1ccc(Br)o1
  Kd: > 4 mM (inactive)

## O=C1CC[C@]23/C=C/C(=O)NCCCCNCCCNC(=O)/C=C/c4ccc(c2c4)O[C@@H]3C1
  Kd: > 4 mM (inactive)

## COc1ccc2c(C)cc(=O)oc2c1
  Kd: > 4 mM (inactive)

## Cc1ccc(C)c(C(=O)NCc2ccncc2)c1
  Kd: > 4 mM (inactive)

## N#CCCn1ccnc1-c1ccccc1
  Kd: > 4 mM (inactive)

## CC(C)(O)[C@@H]1Cc2cc3ccc(=O)oc3cc2O1
  Kd: > 4 mM (inactive)

## Cc1nc(N)sc1C(=O)Nc1nccs1
  Kd: > 4 mM (inactive)

## Cc1cc(C)c(C(N)=O)c(=S)[nH]1
  Kd: > 4 mM (inactive)

## CCOC(=O)c1c(C)nc2ccccn12
  Kd: > 4 mM (inactive)

## Cc1cc(C(F)(F)F)n2nc(C(=O)O)c(Cl)c2n1
  Kd: > 4 mM (inactive)

## CNS(=O)(=O)c1ccc2[nH]c(=O)[nH]c2c1
  Kd: > 4 mM (inactive)

## CNC(=O)C1CCCN(S(C)(=O)=O)C1 (stereo unspecified)
  Kd: > 4 mM (inactive)

## O=C(O)C1CC(C2CCCCN2)CN2CCCCC12 (stereo unspecified)
  Kd: > 4 mM (inactive)

## CCOC(=O)C1CCN(c2ncnc3nc[nH]c23)CC1
  Kd: > 4 mM (inactive)

## CC1=C(C(N)=O)C(c2ccccc2)NC(=O)N1 (stereo unspecified)
  Kd: > 4 mM (inactive)

## O=C(Nc1cccc(O)c1)c1ccccc1
  Kd: > 4 mM (inactive)

## NC(=O)C1CCN(C(=O)Nc2ccccc2)CC1
  Kd: > 4 mM (inactive)

## NC(=O)Cn1cnc2ccccc21
  Kd: > 4 mM (inactive)

## CC(=O)NCC1(c2ccccc2)CCOCC1
  Kd: > 4 mM (inactive)

## CC(=O)c1cccc(NC(=O)C=C(C)C)c1
  Kd: > 4 mM (inactive)

## OCc1ccccc1N1CCOCC1
  Kd: > 4 mM (inactive)

## O=C1O[C@H](C(O)CO)C(O)=C1O (stereo partly specified)
  Kd: > 4 mM (inactive)

## O=C(NCCCSc1ncccn1)Nc1ncccn1
  Kd: > 4 mM (inactive)

## CC(=O)NC(NC(C)=O)c1ccccc1
  Kd: > 4 mM (inactive)

## Cc1nc2ccccc2c2c1C(=O)N(N)C2=O
  Kd: > 4 mM (inactive)

## Cc1oc(S(=O)(=O)N2CCCCC2)cc1C(=O)O
  Kd: > 4 mM (inactive)

## CC(=O)N1CCN(S(=O)(=O)c2ccccc2)CC1
  Kd: > 4 mM (inactive)

## CN1CCN(C(=O)c2cc(-c3ccccc3)on2)CC1
  Kd: > 4 mM (inactive)

## O=P(c1ccccc1)(c1ccccc1)C1CCOCC1
  Kd: > 4 mM (inactive)

## Cc1noc(C)c1C(=O)N1CCN(c2ncccn2)CC1
  Kd: > 4 mM (inactive)

## CC(=O)Oc1ccc2c(c1)c(C(C)=O)c(C)n2C
  Kd: > 4 mM (inactive)

## CCOC(=O)Cn1cnc2c1c(=O)[nH]c(=O)n2C
  Kd: > 4 mM (inactive)

## COc1cc(N)ncn1
  Kd: > 4 mM (inactive)

## O=C1NC(=S)N/C1=C\c1cccc([N+](=O)[O-])c1
  Kd: > 4 mM (inactive)

## Cc1noc(C)c1C(=O)N1CCC2(CC1)OCCO2
  Kd: > 4 mM (inactive)

## CCSc1nc(C)c(CC)c(C)c1C(N)=O
  Kd: > 4 mM (inactive)

## CCC(C)OC1CCS(=O)(=O)C1 (stereo unspecified)
  Kd: > 4 mM (inactive)

## O=C(COc1ccccc1)N1CCc2ccccc2C1
  Kd: > 4 mM (inactive)

## Cc1c(C)[n+](=O)c(-c2cccs2)c(C)n1[O-]
  Kd: > 4 mM (inactive)

## CNC(=O)C(=O)Nc1ccc(F)cc1
  Kd: > 4 mM (inactive)

## O=C(Nc1ccccc1N1CCCC1)c1cccnc1
  Kd: > 4 mM (inactive)

## COCc1cc(Cl)nc(-c2csc(C)n2)n1
  Kd: > 4 mM (inactive)

## CCc1ccc(/C=N/n2cnnc2)cc1
  Kd: > 4 mM (inactive)

## O=C(O)Cc1nc(-c2ccncc2)n[nH]1
  Kd: > 4 mM (inactive)

## O=c1[nH]c(N2CCOCC2)nc2ccccc12
  Kd: > 4 mM (inactive)

## Cc1ccc2c(C)c(C(=O)Nc3nnc(C)s3)oc2c1
  Kd: > 4 mM (inactive)

## NC(N)=NOCC[C@H](N)C(=O)O
  Kd: > 4 mM (inactive)

## Cc1ccnc(NS(=O)(=O)c2ccccc2)n1
  Kd: > 4 mM (inactive)

## OCc1ccc(OC(F)(F)F)cc1
  Kd: > 4 mM (inactive)

## COc1cc([C@@H]2c3cc4c(cc3C(OC3O[C@@H]5COC(C)O[C@H]5[C@H](O)[C@H]3O)C3COC(=O)[C@@H]32)OCO4)cc(OC)c1O (stereo partly specified)
  Kd: > 4 mM (inactive)

## O=[n+]1c(CO)c(CO)n([O-])c2ccccc21
  Kd: > 4 mM (inactive)

## CNC(=O)c1c(O)c2ccccc2[nH]c1=O
  Kd: > 4 mM (inactive)

## NC(=O)C1CCN(c2ncnc(N)c2[N+](=O)[O-])CC1
  Kd: > 4 mM (inactive)

## CNC(=O)C1CC(=O)N(c2ccc(O)cc2)C1 (stereo unspecified)
  Kd: > 4 mM (inactive)

## O=C1CCc2ccccc2CN1
  Kd: > 4 mM (inactive)

## CC1=C(/C=C/C(C)=C/C=C/C(C)=C/C=C/C=C(C)/C=C/C=C(C)/C=C/C2=C(C)CCCC2(C)C)C(C)(C)CCC1
  Kd: > 4 mM (inactive)

## O=CN1CCN(C(=O)c2ccc(F)cc2)CC1
  Kd: > 4 mM (inactive)

## Cn1c(NCc2ccccc2O)nc2ccccc21
  Kd: > 4 mM (inactive)

## OCC1COc2ccccc2O1 (stereo unspecified)
  Kd: > 4 mM (inactive)

## NC(=O)CCn1ncc2ccccc21
  Kd: > 4 mM (inactive)

## O=C1NC(=O)C(C(=S)Nc2ccccc2)C(=O)N1
  Kd: > 4 mM (inactive)

## Cc1nc(SCC#N)c2c(C)c(C)sc2n1
  Kd: > 4 mM (inactive)

## C[C@H]1C(=O)CCC2[C@]3(C)CC[C@@]4(C)C5CC(C)(C)CC[C@]5(C)CC[C@]4(C)C3CC[C@@]21C (stereo partly specified)
  Kd: > 4 mM (inactive)

## CCC(=O)Nc1ccccc1NC(C)=O
  Kd: > 4 mM (inactive)

## CCOC(=O)c1ccc(F)cc1F
  Kd: > 4 mM (inactive)

## Cn1cc(Cl)c(C(=O)Nc2ccncc2)n1
  Kd: > 4 mM (inactive)

## COc1ccc2c(c1)OCC(Cc1ccc(OC)c(OC(C)=O)c1)C2=O (stereo unspecified)
  Kd: > 4 mM (inactive)

## COc1ccccc1/C=C/CN1CCOCC1
  Kd: > 4 mM (inactive)

## Cc1c(C(=O)N2CCOCC2)oc2c1C(=O)CC(C)(C)C2
  Kd: > 4 mM (inactive)

## N#CCN1C(=O)c2ccccc2S1(=O)=O
  Kd: > 4 mM (inactive)

## Cn1c(CSc2nc3ccccc3s2)n[nH]c1=S
  Kd: > 4 mM (inactive)

## CC(C)CCCC(C)[C@H]1CCC2C3CC[C@H]4CC(=O)CC[C@]4(C)C3CC[C@@]21C (stereo partly specified)
  Kd: > 4 mM (inactive)

## CSc1nc(NC(C)C)nc(N2CCOCC2)n1
  Kd: > 4 mM (inactive)

## CSc1ncnc2nc[nH]c12
  Kd: > 4 mM (inactive)

## CC(C)c1ccc2c(c1O)CC[C@H]1C3=C(CC[C@]21C)C(=O)OC3
  Kd: > 4 mM (inactive)

## CCN=Cc1c(O)n(-c2ccccc2C)c(=O)[nH]c1=O
  Kd: > 4 mM (inactive)

## O=C(O)c1ccc(-n2cccn2)cc1
  Kd: > 4 mM (inactive)

## CSc1nc(C)cc(-n2ccc(=O)[nH]c2=O)n1
  Kd: > 4 mM (inactive)

## NS(=O)(=O)c1ccc(N=Cc2cccs2)cc1
  Kd: > 4 mM (inactive)

## Clc1ncnc2[nH]ncc12
  Kd: > 4 mM (inactive)

## COc1cccc(N2CCN(C(=O)c3cccnc3)CC2)c1
  Kd: > 4 mM (inactive)

## O=C(O)c1ccc2c(c1)OCCCO2
  Kd: > 4 mM (inactive)

## O=c1c2ccccc2ncn1C1CCCCC1
  Kd: > 4 mM (inactive)

## N#CCSc1nc2ccccc2c(=O)n1-c1ccccc1
  Kd: > 4 mM (inactive)

## CC(=O)NC12CC3CC(C)(C1)CC(NC(C)=O)(C3)C2
  Kd: > 4 mM (inactive)

## CCn1c(-c2ccccc2)n[nH]c1=S
  Kd: > 4 mM (inactive)

## O=C(O)CSCC(=O)Nc1cccc(O)c1
  Kd: > 4 mM (inactive)

## O=C1CCNc2cc3ccccc3cc21
  Kd: > 4 mM (inactive)

## Cc1cc(C)nc(NC(N)=NCc2ccco2)n1
  Kd: > 4 mM (inactive)

## CN1CCC[C@H]1c1cccnc1
  Kd: > 4 mM (inactive)

## Cc1ccc(SCCN2C(=O)NC(C)(C)C2=O)cc1
  Kd: > 4 mM (inactive)

## CC(=O)c1cccc(N=C2NC(=O)CS2)c1
  Kd: > 4 mM (inactive)

## Cc1ccc(C(=O)N2CCC(C(N)=O)CC2)cc1C
  Kd: > 4 mM (inactive)

## O=C1CCC(=O)N1CN1CCOCC1
  Kd: > 4 mM (inactive)

## COc1ccccc1NS(=O)(=O)c1c[nH]c(=O)[nH]c1=O
  Kd: > 4 mM (inactive)

## Cn1c(NCc2ccco2)nc2ccccc21
  Kd: > 4 mM (inactive)

## CNC(=O)C(=O)Nc1cccc(Cl)c1
  Kd: > 4 mM (inactive)

## c1ccc(CNc2ncnc3nc[nH]c23)nc1
  Kd: > 4 mM (inactive)

## O=C(c1ccc2c(c1)OCO2)N1CCC2(CC1)OCCO2
  Kd: > 4 mM (inactive)

## COc1c2c(cc3c1OCO3)C13C=C[C@H](OC)CC1N(C2)CC3O (stereo partly specified)
  Kd: > 4 mM (inactive)

## Cn1nnc2cc(C(=O)Nc3cccnc3)ccc21
  Kd: > 4 mM (inactive)

## O=C(O)C1Cc2ccccc2O1 (stereo unspecified)
  Kd: > 4 mM (inactive)

## Cc1ccccc1NC(=O)/C=C\C(N)=O
  Kd: > 4 mM (inactive)

## O=c1c(-c2ccc(O)cc2)coc2cc(O)ccc12
  Kd: > 4 mM (inactive)

## Cc1cc(=O)n2[nH]c(COc3ccccc3)nc2n1
  Kd: > 4 mM (inactive)

## O=c1cc(-c2ccccc2)oc2cc(O)cc(O)c12
  Kd: > 4 mM (inactive)

## CN(C)C(=O)N1CCN(C(=O)c2ccco2)CC1
  Kd: > 4 mM (inactive)

## N#Cc1cnn(-c2ccc(Cl)cc2)c1N
  Kd: > 4 mM (inactive)

## N#C/C(=C\c1ccc[nH]1)S(=O)(=O)c1ccccc1
  Kd: > 4 mM (inactive)

## C=CCSCC=C
  Kd: > 4 mM (inactive)

## c1ccc(-c2nnc3sc(-c4ccncc4)nn23)cc1
  Kd: > 4 mM (inactive)

## COc1cccc(/C=N/N=C2/NC(=O)CS2)c1
  Kd: > 4 mM (inactive)

## C=C1C2CC[C@@]3(C)[C@H](c4ccoc4)OC(=O)C[C@]13O[C@H]1CC(O)C(C)(C)C(CC(=O)OC)[C@@]21C (stereo partly specified)
  Kd: > 4 mM (inactive)

## CN(C)c1nc(N)nc(Cn2ccnc2)n1
  Kd: > 4 mM (inactive)

## O=C(c1ccncc1)N1CCN(C(=O)c2ccco2)CC1
  Kd: > 4 mM (inactive)

## Fc1ccc(F)c(CN2CCN(c3ncccn3)CC2)c1
  Kd: > 4 mM (inactive)

## Cc1cc(F)c(F)c(C(=O)NC2CC2)c1Cl
  Kd: > 4 mM (inactive)

## CC(NC(=O)c1ccco1)C1CCCO1 (stereo unspecified)
  Kd: > 4 mM (inactive)

## O=C(O)C1CSC(c2ccco2)N1 (stereo unspecified)
  Kd: > 4 mM (inactive)

## COc1cc2ccc(=O)oc2c(OC)c1OC
  Kd: > 4 mM (inactive)

## CN(C)c1ccc(C2CC(=O)CC(=O)C2)cc1
  Kd: > 4 mM (inactive)
